Values quoted from earlier work as cited in patent US20110071125A1, “SUBSTITUTED PHENYLAMINO-BENZENE DERIVATIVES USEFUL FOR TREATING HYPER-PROLIFERATIVE DISORDERS AND DISEASES ASSOCIATED WITH MITOGEN EXTRACELLULAR KINASE ACTIVITY” (priority 2007, published 2011).

System: colon cancer
Settings: oral treatment, mouse models, ref. [18]

**Q.** Which “colon cancer growth in vivo” value does the source give for O=C(NOCC1CC1)c1ccc(F)c(F)c1Nc1ccc(I)cc1Cl [PD184352] here?
**A.** The value was “inhibit colon cancer growth in vivo”.
